# Values quoted from earlier work, collected in patent publication US7985733B1, “Buffer-based method for preparing bivalirudin drug product” (The Medicines Company, priority 2010, dated 2011).
# Legend:
# [1] = 25° C.
# [2] = pH at which the molecule carries no net charge
# [3] = statement of CN 101244043
compound,measurement,setting,value
"O=S(=O)(O)CCN1CCN(CCS(=O)(=O)O)CC1 [Piperazine-1,4-bis(2-ethanesulfonic acid)]",pKa,[1],6.8
"CC[C@H](C)[C@H](NC(=O)[C@H](CCC(=O)O)NC(=O)[C@H](CCC(=O)O)NC(=O)[C@H](Cc1ccccc1)NC(=O)[C@H](CC(=O)O)NC(=O)CNC(=O)[C@H](CC(N)=O)NC(=O)CNC(=O)CNC(=O)CNC(=O)CNC(=O)[C@@H]1CCCN1C(=O)[C@H](CCCNC(=N)N)NC(=O)[C@@H]1CCCN1C(=O)[C@H](N)Cc1ccccc1)C(=O)N1CCC[C@H]1C(=O)N[C@@H](CCC(=O)O)C(=O)N[C@@H](CCC(=O)O)C(=O)N[C@@H](Cc1ccc(O)cc1)C(=O)N[C@@H](CC(C)C)C(=O)O [bivalirudin, D-Phenylalanyl-L-Prolyl-L-Arginyl-L-Prolyl-Glycyl-Glycyl-Glycyl-Glycyl-L-Asparagyl-Glycyl-L-Aspartyl-L-Phenylalanyl-L-Glutamyl-L-Glutamyl-L-Isoleucyl-L-Prolyl-L-Glutamyl-L-Glutamyl-L-Tyrosyl-L-Leucine]",isoelectric point (pI),[2],about 3.6
same,solubility in water,[3],easily soluble in water
Maleate,pKa (pK1),[1],2.0
same,pKa (pK2),[1],6.2
